Test results: paper PMC12607897, “Inhibition of HIV-1 replication by primer RNA packaging inhibitors” (mBio, 2025)

What was measured:
[1] = tested on: HIV-1 NLENG1-IRES-GFP (NL4-3-GFP) virus in MT4 cells; test: ex vivo HIV-1 replication assay, GFP expression by flow cytometry in infected MT4 cells (multiple cycles); type: cell-based; conditions: drug 10 µM, added 36–48 h after infection, read 72 h later
Protocol: To test this hypothesis, azelastine, lacidipine, and cilnidipine were used in an ex vivo assay to determine their effect on HIV-1 proliferation. MT4 cells were infected with NLENG1-IRES-GFP, a virus that allows for multiple cycles of infection, and the molecules were added to the medium 36–48 h after infection, before the completion of the first round of viral infection; 72 h after the drugs were added, when two rounds of HIV-1 infection were underway, the level of GFP fluorescence was determined by flow cytometry, as a marker of HIV-1 infection (Fig. 3, left panel). HIV-1 replication was inhibited in a dose-dependent manner. […]. […] At the same time, no drug toxicity was observed, as determined by the MTT assay (Fig. 3, right panel). […] The selectivity index (SI) ([24]) of the three drugs, defined as the ratio of 50% cytotoxic concentration (CC50; >20 µM) to 50% inhibitory concentration (IC50; ~5 µM), >4.
Fig 3 Effect of the inhibitors on HIV-1 replication and cell toxicity. MT4 cells were infected with NL4-3-GFP virus. Two days after infection, inhibitors were added to the culture medium at final concentrations of 1, 3.3, or 10 µM. The final concentration of DMSO was 0.1%. Five days after infection, GFP expression was quantified by flow cytometry, and cell viability was determined by the MTT assay. NInf corresponds to non-infected cells. Six independent experiments were performed, and standard deviations are shown. A Student t-test was used to determine statistical significance compared with the control experiment with DMSO (*: P < 0.001; **: P < 0.0001).
MT4 cell line ([26]) was maintained in RPMI 1640. HEK293T and HeLa-P4 cells ([27]) were maintained in Dulbecco’s modified Eagle medium (DMEM). All media were supplemented with Glutamax and with 10% heat-inactivated fetal calf serum (Hyclone) and 1% penicillin/streptomycin (100 units/mL) (Gibco). All media were purchased from Gibco (Life Technologies Co.). All cell lines used here were incubated at 37 °C, under 5% CO2 atmosphere. HIV-1 stocks were prepared by calcium phosphate-mediated transfection of HEK293T cells, as previously described ([22]), with shuttle vector plasmids encoding HIV-1 NL4-3 (GenBank: AF324493.1) or NLENG1-IRES-GFP ([28]). The latter vector comes from the HIV NL4-3 strain and contains a gfp-IRES-nef cassette at the nef locus. […].
For NL4-3-GFP vectors, viral infection is followed by GFP expression (i.e., the percentage and geometric mean fluorescence intensity [MFI] of GFP^+ cells). Infectivity was estimated by flow cytometry using a FACS Celesta flow cytometer (BD Biosciences). Toxicity is also assessed by flow cytometry (side and forward scatter).

[2] = target: T1, mLysRS:IN interaction (human mLysRS, HIV-1 IN) (UniProt P12497+Q15046); test: HTRF assay of mLysRS:IN interaction; type: binding, human / HIV-1; conditions: HTRF; mLysRS 1.5 nM dimer, IN 25 nM dimer; read-out: half-maximal inhibitory concentration (IC50) in the mLysRS:IN assay
T1 construct: made in house
T1 sequence (Q15046 other isoform, or with tags, fused parts or gaps, other chains not shown): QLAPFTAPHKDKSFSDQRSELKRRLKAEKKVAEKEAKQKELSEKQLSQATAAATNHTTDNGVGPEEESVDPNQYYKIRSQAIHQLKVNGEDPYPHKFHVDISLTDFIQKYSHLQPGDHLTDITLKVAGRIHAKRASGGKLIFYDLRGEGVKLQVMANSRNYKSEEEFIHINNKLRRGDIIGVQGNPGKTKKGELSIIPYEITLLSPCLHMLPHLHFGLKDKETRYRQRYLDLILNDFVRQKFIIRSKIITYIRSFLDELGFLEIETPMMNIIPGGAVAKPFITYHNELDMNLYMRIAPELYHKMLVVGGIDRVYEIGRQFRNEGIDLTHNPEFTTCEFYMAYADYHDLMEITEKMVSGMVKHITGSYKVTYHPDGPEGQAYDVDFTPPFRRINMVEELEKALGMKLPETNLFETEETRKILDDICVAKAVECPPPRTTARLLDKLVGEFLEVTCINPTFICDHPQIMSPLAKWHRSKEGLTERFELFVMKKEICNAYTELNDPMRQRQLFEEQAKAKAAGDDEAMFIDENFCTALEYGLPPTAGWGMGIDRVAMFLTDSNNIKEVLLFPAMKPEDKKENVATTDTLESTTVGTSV
Protocol: Fig 1 Determination of the half-maximal inhibitory concentration (IC50) of the drugs in the mLysRS:IN binding assay. The binding of mLysRS to IN (red) or p38 (blue) was monitored in the HTRF assay in the presence of increasing drug concentrations (9–1,000 µM). The experimental values (symbols) were fitted (curves) to the equation Y = Ymin + {(Ymax − Ymin)/[1 + (X/IC50)^n]}, where n is the Hill coefficient. […] Proteins were isolated as described previously ([4]). Several batches of IN were used throughout this study. […] The molecules are dissolved in DMSO at a final concentration of 10 mM. After a 1 h incubation on ice, antibodies (Cisbio) directed to the His-tag and conjugated with Eu^3+ cryptate (Cisbio #61HISKLB) and the HA-tag conjugated with XL665 (Cisbio #610HAXLB) were added, and incubation was continued for 30 min. After the addition of 50 mM KF, fluorescence of Eu^3+ cryptate and of XL665 was recorded at 620 nm (I620) and 665 nm (I665), respectively, following excitation of Eu^3+ cryptate at 317 nm, in an Infinite M1000 PRO microplate reader (TECAN). The results were expressed as the ratio of I665/I620.

[3] = target: mLysRS (Homo sapiens, UniProt Q15046); test: tRNA aminoacylation assay; type: biochemical; conditions: drug added up to 1 mM
Sequence of mLysRS (Q15046 31-625 isoform Q15046-2): as the sequence (Q15046 other isoform, or with tags, fused parts or gaps, other chains not shown) above
Protocol: Initial rates of tRNA aminoacylation were measured at 25°C in 0.1 mL of 20 mM Imidazole-HCl buffer (pH 7.5), 100 mM KCl, 0.5 mM DTT, 12 mM MgCl2, 2 mM ATP, 180 µM ^14C-labeled lysine (NEN; 16.66 Ci/mol), and saturating amounts of global yeast tRNA ([30]). The incubation mixture contained catalytic amounts (2 nM) of mLysRS appropriately diluted in 10 mM Tris-HCl (pH 7.5), 10 mM 2-mercaptoethanol, containing bovine serum albumin at 4 mg/mL. Inhibitors were added at final concentrations ranging from 3.9 to 1,000 µM. One unit of activity is the amount of enzyme producing 1 nmol of lysine-tRNA^Lys/min, at 25°C.
Fig. S5. Effect of inhibitors on mLysRS activity. The tRNA-aminoacylation activity of mLysRS
was determined in the presence of increasing concentrations of the drugs. Two independent
experiments were performed and standard deviations are shown.
Fig. 6. Raw data of quantification of minus-strand strong stop viral DNA and viral RNA by
digital PCR from viruses recovered after 72 h incubation in the presence of 10 µM of the drugs.

Structure (SMILES): CN1CCCC(n2nc(Cc3ccc(Cl)cc3)c3ccccc3c2=O)CC1 (stereo not drawn) [azelastine]
- GFP fluorescence, % of the value observed when DMSO was added alone [1]: 15.2%
- IC50 [2]: 340 ± 50 µM
- inhibition of Lysyl-tRNA^Lys synthesis [3]: did not inhibit
